Columns and labels:
Assay in all cases: relative viability (nuclei count vs DMSO), 5 days (fraction); higher = more cells survive
Dactolisib + Linsitinib = compound: Cn1c(=O)n(-c2ccc(C(C)(C)C#N)cc2)c2c3cc(-c4cnc5ccccc5c4)ccc3ncc21 [Dactolisib] + C[C@]1(O)C[C@@H](c2nc(-c3ccc4ccc(-c5ccccc5)nc4c3)c3c(N)nccn32)C1 [Linsitinib] (partner 1 µM)
Procedure, shortened: (§1)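 Medians of duplicate plates are given as relative viability. That measure is the nuclei count in treated wells divided by the count in vehicle wells. Counts were taken on 4× images of lung cancer cell lines in 1536-well plates, 5 days after pin-tool dosing the day after seeding with one drug alone or a fixed anchor-drug dose plus five library-drug doses (not always all listed) in √10 steps.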

AZ505 + Decitabine = compound: C1CCC(CC1)N(CCNCCC2=C3C(=C(C=C2)O)NC(=O)CO3)C(=O)CCNCCC4=CC(=C(C=C4)Cl)Cl [AZ505] + Nc1ncn([C@H]2C[C@H](O)[C@@H](CO)O2)c(=O)n1 [Decitabine] (partner 2 µM)
Procedure, shortened: as §1

Dactolisib + Olaparib = compound: Cn1c(=O)n(-c2ccc(C(C)(C)C#N)cc2)c2c3cc(-c4cnc5ccccc5c4)ccc3ncc21 [Dactolisib] + O=C(c1cc(Cc2n[nH]c(=O)c3ccccc23)ccc1F)N1CCN(C(=O)C2CC2)CC1 [Olaparib] (partner 8 µM)
Procedure, shortened: as §1

Dactolisib + Vorinostat = compound: Cn1c(=O)n(-c2ccc(C(C)(C)C#N)cc2)c2c3cc(-c4cnc5ccccc5c4)ccc3ncc21 [Dactolisib] + O=C(CCCCCCC(=O)Nc1ccccc1)NO [Vorinostat] (partner 1 µM)
Procedure, shortened: as §1

**Q.** Which results are given for UMC-11?
**A.** relative viability (Dactolisib + Linsitinib; first compound 0.002 µM): 1.02; relative viability (Dactolisib + Linsitinib; first compound 0.006325 µM): 0.987; relative viability (Dactolisib + Linsitinib; first compound 0.02 µM): 0.671; relative viability (Dactolisib + Linsitinib; first compound 0.06325 µM): 0.286; relative viability (Dactolisib + Linsitinib; first compound 0.2 µM): 0.262; relative viability (AZ505 + Decitabine; first compound 0.08 µM): 0.742; relative viability (AZ505 + Decitabine; first compound 0.253 µM): 0.674; relative viability (AZ505 + Decitabine; first compound 0.8 µM): 0.53; relative viability (AZ505 + Decitabine; first compound 2.53 µM): 0.52; relative viability (AZ505 + Decitabine; first compound 8 µM): 0.666; relative viability (Dactolisib + Olaparib; first compound 0.002 µM): 0.36; relative viability (Dactolisib + Olaparib; first compound 0.006325 µM): 0.317; relative viability (Dactolisib + Olaparib; first compound 0.02 µM): 0.306; relative viability (Dactolisib + Olaparib; first compound 0.06325 µM): 0.202; relative viability (Dactolisib + Olaparib; first compound 0.2 µM): 0.193; relative viability (Dactolisib + Vorinostat; first compound 0.002 µM): 0.407; relative viability (Dactolisib + Vorinostat; first compound 0.006325 µM): 0.392; relative viability (Dactolisib + Vorinostat; first compound 0.02 µM): 0.245; relative viability (Dactolisib + Vorinostat; first compound 0.06325 µM): 0.235; relative viability (Dactolisib + Vorinostat; first compound 0.2 µM): 0.175
